B1: B61.Ig: chimeric protein consisting of the ligand binding domain of ephrin-A1 fused with the Fc portion of a mouse IgG antibody (protein)
chain: DRHTVFWNSSNPKFRNEDYTIHVQLNDYVDIICPHYEDHSVADAAMEQYILYLVEHEEYQLCQPQSKDQVRWQCNRPSAKHGPEKLSEKFQRFTPFTLGKEFKEGHSYYYISKPIHQHEDRCLRLKVTVSGKITHSPQAHDNPQEKRLAADDPEVRVLHSIGHS
modifications: left off: a dimerising Fc or GST

What was measured:
[1] = test system: peripheral blood CD4+ T cells; assay: IFN-γ ELISPOT, CD4+ T cell response to peptide-pulsed T2.DR4 cells; type: cell-based, human; settings: for Total Responses (CD4+ T cell, responding donors/donors evaluated): HLA-DR4+ normal donors; for CD4+ T Cell Response to Peptide on T2.DR4: control peptide subtracted, 0 = <1/100,000
[2] = test system: peripheral blood CD4+ T cells; assay: IL-5 ELISPOT, CD4+ T cell response to peptide-pulsed T2.DR4 cells; type: cell-based, human; settings: one HLA-DR4+ Stage I RCC patient, pre- vs. post-surgery
EphA2 [3] = target: T1, EphA2 (Homo sapiens, UniProt P29317); assay: Western blot of EphA2 protein degradation in tumor cells; type: cell-based; set-up: PC3 (left panel) and SLR24 (right panel) cells were treated for 6 hours with either B61.Ig; endogenous in cells; host or cells: PC3 prostate carcinoma cells (A9, A10); SLR24 renal cell carcinoma cells (A10); settings: PC3 and SLR24 cells; 6 hours; B61.Ig 30 μg/ml or mAb208 8 μg/ml
SLR24 tumors = assay: Hu-SCID tumor model; type: in vivo, C.B-17 scid/scid mice
EphA2 [4] = target: T1, EphA2; assay: Western blot of EphA2 in resected SLR24 lesions after B61-Ig; type: in vivo, C.B-17 scid/scid mice; set-up: resected SLR24 lesions were obtained pre- and 24 h post-intratumoral injection with B61-Ig; from tissue; host or cells: SLR24 human RCC xenograft lesions resected from C.B-17 scid/scid mice; settings: SLR24 tumors resected 24 hours after B61-Ig
Experimental: (§1) Western Blot Analyses. Tumor cells were grown to 80-90% confluency, serum starved overnight, then treated with agonists where indicated. In addition, resected SLR24 lesions were obtained pre- and 24 h post-intratumoral injection with B61-Ig, as outlined below. Tumor samples were analyzed for EphA2 expression via Western blots using the rabbit anti-human EphA2 polyclonal antibody (clone: C-20), Santa Cruz Biotechnology, Inc., Santa Cruz, Calif.). In some experiments, samples were also analyzed for Axl (clone C-20, Santa Cruz Biotechnology, Santa Cruz, Calif.) protein content. Single tumor cell suspensions isolated from confluent tissue culture flasks or from the enzymatic digestion of resected lesions were lysed using 500·mu·l lysis buffer (1% Triton-X, […], 10 mM Tris pH 7.4, 1 mM EDTA, 0.2 mM SOV, 0.5% NP-40) in PBS containing protease inhibitors (Complete, Roche Diagnostic, Mannheim, Germany) for 30 min at 4° C. […]
Hu-SCID Tumor Model. […] Animals were evaluated every 3-4 days for tumor size, with tumor-free status noted on day 40 post-tumor inoculation. […]
EphA2 Agonist Treatment Enhances the efficacy of adoptively transferred anti-EphA2 CD8^+ T Cells in a Hu-SCID Tumor Model. […] Animals were evaluated every 3-4 days for tumor size, with tumor-free status noted on day 40 post-tumor inoculation. […]

EphA2 [5] = target: T1, EphA2; assay: EphA2 immunoprecipitation and anti-phosphotyrosine Western blot; type: cell-based; set-up: endogenous in cells; host or cells: PC3 prostate carcinoma cells (A9, A10); SLR24 renal cell carcinoma cells (A10); settings: PC3 cells; B61.Ig 30 μg/ml or mAb208 8 μg/ml
Experimental: as §1, with “C. After centrifugation at 13,500×g for 20 minutes, the supernatant was mixed 1:1 with SDS-PAGE running buffer and proteins separated on 7.5% PAGE gels, prior to electro-blotting onto nitrocellulose membranes (Millipore, Bedford, Mass.).” for “C.”

SLR24 RCC cells = assay: IFN-γ ELISPOT, recognition of SLR24 by anti-EphA2 CTL clone CL.142; type: cell-based, human; settings: B61.Ig 30 μg/ml overnight, relative to untreated cells
[6] = single therapy: B61-Ig 50 μg intratumoral d18 or 5×10^6 E883 T cells i.v. d19

Molecule	Total Responses (CD4+ T cell, responding donors/donors evaluated) [1]	Total Responses (CD4+ T cell, responding donors/donors evaluated) ([1]; listed as EphA63-75)	CD4+ T Cell Response to Peptide on T2.DR4 ([1]; Normal Donor DR4-1)	CD4+ T Cell Response to Peptide on T2.DR4 ([1]; Normal Donor DR4-2)	CD4+ T Cell Response to Peptide on T2.DR4 ([1]; Normal Donor DR4-3)	CD4+ T Cell Response to Peptide on T2.DR4 ([1]; Normal Donor DR4-4)	CD4+ T Cell Response to Peptide on T2.DR4 ([1]; Normal Donor DR4-5)	CD4+ T Cell Response to Peptide on T2.DR4 ([1]; Normal Donor DR4-6)	CD4+ T Cell Response to Peptide on T2.DR4 ([1]; Normal Donor DR4-7)	Change in Th1-type (IFN-γ) CD4+ T cell response post-surgery ([1]; one HLA-DR4+ Stage I RCC patient, pre- vs. post-surgery)	Change in Th2-type (IL-5) CD4+ T cell response post-surgery [2]	EphA2 protein degradation (EphA2 [3])	Benefit vs. B61-Ig treatment alone (SLR24 tumors; B61-Ig combined with CD8+ T cells specific for influenza matrix58-66, data not shown)	Resolution of disease (treated mice) (SLR24 tumors; combination: B61-Ig 50 μg intratumoral d18 plus 5×10^6 E883 anti-EphA2 CD8+ T cells i.v. d19, tumor-free status day 40)	Animals cured (SLR24 tumors; [6])	SLR24 tumor growth (SLR24 tumors; [6])	EphA2 processing/degradation in situ (EphA2 [4])	EphA2 phosphorylation (phosphotyrosine content) (EphA2 [5])	CL.142 recognition of SLR24 (IFN-γ ELISPOT) (SLR24 RCC cells)
PIYMYSVCNVMSG (listed as Homo sapiens) [compound 63]	6/7	most prevalent	11 /100,000 T cells	36 /100,000 T cells	7 /100,000 T cells	0 /100,000 T cells	156 /100,000 T cells	121 /100,000 T cells	48 /100,000 T cells	increased post-treatment	significant reductions								
B1												Degradation	no enhanced benefit	5/5	no animals were cured	delayed growth	promoted EphA2 processing in situ	Induce EphA2 Phosphorylation	significantly enhanced

From patent US11787846B2, “EphA2 T-cell epitope agonists and uses therefore” (UNIVERSITY OF PITTSBURGH—OF THE COMMONWEALTH SYSTEM OF …, priority 2003, dated 2023)
